Results on one molecule are retold here after patent US20060046993A1, “Crystalline polymorphic form of irinotecan hydrochloride” (Pharmacia Italia S.p.A., priority 2004, published 2006).

Structures can show the parent of a compound that is named as a salt.

The data set is described as follows: Solubility determination of irinotecan hydrochloride Form c in comparison with Form b (excess solid shaken at room temperature, HPLC assay). Type of data set: physicochemical.

Consider `CCc1c2c(nc3ccc(OC(=O)N4CCC(N5CCCCC5)CC4)cc13)-c1cc3c(c(=O)n1C2)COC(=O)[C@]3(O)CC` [Form b, (S)-4,11-Diethyl-3,4,12,14-tetrahydro-4-hydroxy-3,14-dioxo-1H-pyrano[3′,4′:6,7]-indolizino[1,2-b]quinolin-9-yl[1,4′-bipiperidine]-1-carboxylate hydrochloride], for which the Irinotecan hydrochloride concentration was 11.03 mg/mL (a = deionized water, 15 MIN); 12.10 mg/mL (a = deionized water, 30 MIN); 12.12 mg/mL (a = deionized water, 60 MIN); 11.80 mg/mL (a = deionized water, 120 MIN); 0.45 mg/mL (b = pH 1.2 buffer, 15 MIN); 0.42 mg/mL (b = pH 1.2 buffer, 30 MIN). Further, the Irinotecan hydrochloride concentration turned out to be 0.44 mg/mL (b = pH 1.2 buffer, 60 MIN); 0.40 mg/mL (b = pH 1.2 buffer, 120 MIN); 10.27 mg/mL (c = lactic acid pH 3.5, 15 MIN); 11.06 mg/mL (c = lactic acid pH 3.5, 24 HOURS); 10.38 mg/mL (c = lactic acid pH 3.5, 30 MIN); 10.17 mg/mL (c = lactic acid pH 3.5, 60 MIN). The molecule also gave an Irinotecan hydrochloride concentration (c = lactic acid pH 3.5, 120 MIN) of 11.13 mg/mL.
